{
  "source": "ChEMBL document CHEMBL1201862",
  "about": "“PubChem BioAssay data set” (2004)",
  "key": {"[1]": {"experiment": "HEK293T cytotoxicity, dose response, cytotoxicity control for miR-122 modulator project, cell-based, inhibitor set, cherry-pick, set 2 (AID 720697)", "format": "functional"}, "cells [2]": {"experiment": "cells", "format": "functional, cell-based"}, "cells [3]": {"experiment": "cells", "format": "functional, cell-based", "remark": "listed apart in the source"}, "Cytochrome P450 2C19": {"biological_target": "Cytochrome P450 2C19 (Homo sapiens, UniProt P33261)", "sequence (P33261 whole entry)": "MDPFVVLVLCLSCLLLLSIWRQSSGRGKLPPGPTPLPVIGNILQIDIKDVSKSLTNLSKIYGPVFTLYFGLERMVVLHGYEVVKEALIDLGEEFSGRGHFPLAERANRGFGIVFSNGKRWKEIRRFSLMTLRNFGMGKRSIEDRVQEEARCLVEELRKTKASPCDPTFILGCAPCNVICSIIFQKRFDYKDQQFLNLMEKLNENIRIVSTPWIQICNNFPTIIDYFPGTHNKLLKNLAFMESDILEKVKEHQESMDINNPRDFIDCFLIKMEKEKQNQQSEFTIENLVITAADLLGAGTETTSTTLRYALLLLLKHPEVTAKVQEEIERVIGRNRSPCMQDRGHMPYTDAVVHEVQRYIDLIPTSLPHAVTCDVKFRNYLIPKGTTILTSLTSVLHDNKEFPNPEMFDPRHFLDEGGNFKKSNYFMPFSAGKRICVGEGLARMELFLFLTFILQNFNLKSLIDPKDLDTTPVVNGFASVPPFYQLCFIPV", "experiment": "Cytochrome panel assay with activity outcomes. Panel member name: p450-cyp2c19 Compounds with AC50 equal or less than 10 uM are considered active", "format": "functional", "settings": "read-out: AC50"}, "Cytochrome P450 2C9": {"biological_target": "Cytochrome P450 2C9 (Homo sapiens, UniProt P11712)", "sequence (P11712 whole entry)": "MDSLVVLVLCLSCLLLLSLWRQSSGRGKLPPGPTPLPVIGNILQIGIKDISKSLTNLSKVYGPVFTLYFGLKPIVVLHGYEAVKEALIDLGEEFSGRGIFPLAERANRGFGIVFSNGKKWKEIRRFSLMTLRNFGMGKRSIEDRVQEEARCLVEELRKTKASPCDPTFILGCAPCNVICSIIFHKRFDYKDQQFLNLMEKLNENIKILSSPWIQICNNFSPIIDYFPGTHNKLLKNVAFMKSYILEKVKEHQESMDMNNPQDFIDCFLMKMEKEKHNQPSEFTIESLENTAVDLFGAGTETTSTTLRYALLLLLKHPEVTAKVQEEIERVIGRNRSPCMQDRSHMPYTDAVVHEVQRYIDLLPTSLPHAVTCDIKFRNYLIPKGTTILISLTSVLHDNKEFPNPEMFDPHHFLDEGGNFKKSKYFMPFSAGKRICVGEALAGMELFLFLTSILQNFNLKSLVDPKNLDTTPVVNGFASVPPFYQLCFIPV"}, "Cytochrome P450 2D6": {"biological_target": "Cytochrome P450 2D6 (Homo sapiens, UniProt P10635)", "sequence (P10635 whole entry)": "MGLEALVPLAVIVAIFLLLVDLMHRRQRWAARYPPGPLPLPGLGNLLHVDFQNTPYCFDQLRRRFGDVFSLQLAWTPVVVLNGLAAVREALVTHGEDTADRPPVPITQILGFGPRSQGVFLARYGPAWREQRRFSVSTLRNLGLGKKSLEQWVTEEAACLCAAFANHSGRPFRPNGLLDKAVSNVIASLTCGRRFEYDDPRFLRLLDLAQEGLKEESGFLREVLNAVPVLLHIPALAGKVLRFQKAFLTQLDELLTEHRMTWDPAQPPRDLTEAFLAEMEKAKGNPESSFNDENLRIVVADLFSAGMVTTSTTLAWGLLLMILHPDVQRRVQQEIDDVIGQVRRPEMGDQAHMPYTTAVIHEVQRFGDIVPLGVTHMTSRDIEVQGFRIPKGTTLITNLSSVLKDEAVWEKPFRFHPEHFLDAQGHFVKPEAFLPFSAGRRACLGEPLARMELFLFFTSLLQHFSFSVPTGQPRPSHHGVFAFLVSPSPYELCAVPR"}, "Cytochrome P450 1A2": {"biological_target": "T1, Cytochrome P450 1A2 (Homo sapiens, UniProt P05177)", "T1 sequence (P05177 whole entry)": "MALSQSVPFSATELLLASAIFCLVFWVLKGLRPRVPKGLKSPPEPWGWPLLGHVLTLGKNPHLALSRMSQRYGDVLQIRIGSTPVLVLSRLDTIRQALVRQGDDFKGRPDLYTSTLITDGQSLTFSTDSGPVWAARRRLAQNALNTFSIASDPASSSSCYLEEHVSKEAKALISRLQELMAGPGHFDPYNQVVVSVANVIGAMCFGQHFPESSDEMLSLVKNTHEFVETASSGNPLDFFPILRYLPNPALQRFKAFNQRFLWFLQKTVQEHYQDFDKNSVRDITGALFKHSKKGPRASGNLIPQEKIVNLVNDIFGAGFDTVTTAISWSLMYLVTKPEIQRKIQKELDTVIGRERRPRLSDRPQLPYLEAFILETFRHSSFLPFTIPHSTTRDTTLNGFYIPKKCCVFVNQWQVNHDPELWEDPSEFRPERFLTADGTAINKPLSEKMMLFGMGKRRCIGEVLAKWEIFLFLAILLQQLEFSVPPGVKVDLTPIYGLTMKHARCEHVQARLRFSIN"}, "[4]": {"experiment": "miR-122 activators in hepatoma reporter cells, dose response, cell-based, Huh7 psiCHECK-miR122, Renilla luciferase, cherry-picked (AID 651956);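 also: huh7 hepatoma cells stably carrying a psiCHECK-2 miR-122 sensor plasmid; renilla luciferase signal reporting endogenous miR-122 activity after 48 h compound exposure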", "format": "functional"}, "[5]": {"experiment": "LGR2 antagonists, dose response, cell-based, HEK293, CRE-luciferase reporter, cherry pick, set 2 (AID 743343);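 also: transfected cells were stimulated with diluted bursicon conditioned medium after compound addition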", "format": "functional"}, "[6]": {"experiment": "MC4R antagonists, dose response, counter-screen for LGR2 antagonist project, cell-based, plate reader, cherry pick (AID 743444);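 also: transfected HEK 293 cells stimulated with alpha-MSH peptide; potency of inhibitors of the alpha-MSH evoked signal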", "format": "functional"}, "Streptococcus": {"tested_on": "Streptococcus", "experiment": "Group A Streptococcus viability loss, dose response, counter-screen for streptokinase expression inhibitor project, luminescence, BacTiterGlo (AID 1915);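 also: potency for reduction of bacterial viability or growth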", "format": "functional, organism-based"}, "[7]": {"tested_on": "Streptococcus sp. 'group A'", "experiment": "growth inhibition of control SK(-) GAS strain, dose response, counter-screen for streptokinase expression inhibitor project, luminescence, kanamycin, BacTiterGlo, confirmation (AID 1900)", "format": "functional, organism-based"}, "Streptokinase A": {"biological_target": "T2, Streptokinase A (Streptococcus pyogenes serotype M1, UniProt P10520)", "T2 sequence (P10520 whole entry)": "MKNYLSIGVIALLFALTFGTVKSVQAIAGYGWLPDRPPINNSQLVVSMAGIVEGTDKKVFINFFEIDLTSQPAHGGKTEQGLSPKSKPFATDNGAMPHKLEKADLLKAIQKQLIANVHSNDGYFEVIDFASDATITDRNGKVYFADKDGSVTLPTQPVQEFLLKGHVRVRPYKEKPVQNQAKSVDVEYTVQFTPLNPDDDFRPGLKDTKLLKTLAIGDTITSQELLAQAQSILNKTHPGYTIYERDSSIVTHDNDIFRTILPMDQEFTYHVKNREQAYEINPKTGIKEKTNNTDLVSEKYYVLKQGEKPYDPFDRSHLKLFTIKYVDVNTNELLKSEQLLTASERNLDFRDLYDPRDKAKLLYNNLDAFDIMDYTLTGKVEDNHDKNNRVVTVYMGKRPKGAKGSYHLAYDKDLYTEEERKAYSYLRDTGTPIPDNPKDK", "experiment": "S. pyogenes streptokinase expression inhibitors, potency, dose response, plasminogen activation absorbance, OD405 (AID 1914);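 also: secreted streptokinase activity via plasminogen activation per viability signal from cell pellet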", "format": "functional, Streptococcus pyogenes M1 GAS"}, "[8]": {"experiment": "growth suppression of PTEN-null colon cells, dose response, cell-based, HCT116 PTEN knockout (AID 1047);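 also: cells exposed to compound for 60 hours before readout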", "format": "functional"}, "[9]": {"experiment": "growth suppression of beta-catenin-knockout colon cells, dose response, cell-based, HCT116, human colon tumor (AID 1045);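 also: cells exposed to compound for 60 hours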", "format": "functional"}, "[10]": {"experiment": "control 3'UTR Renilla luciferase suppression, dose response, counter-screen for Shn3 inhibitor project, cell-based, Clone20-Shn3RL, cherry-picked (AID 624133)", "format": "functional"}, "[11]": {"experiment": "Shn3 3'UTR reporter inhibitors, dose response, cell-based, Clone20 osteoblasts, firefly luciferase, cherry-picked (AID 624132)", "format": "functional"}, "[12]": {"experiment": "Luminescence Cell-Based Dose Retest to Confirm Inhibitors of Cancer Stem Cells. [Related pubchem assays (depositor defined):AID2717, AID2721]", "format": "functional", "settings": "Homo sapiens"}, "INS1": {"tested_on": "INS1", "experiment": "beta cell apoptosis inhibitors, cytokine rescue, dose response, luminescence, retest (AID 449756);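 also: cell death triggered by IL-1 beta plus TNF-alpha plus IFN-gamma mixture; protective hits raise ATP signal compared with cytokine alone wells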", "format": "functional, cell-based", "settings": "Rattus norvegicus"}, "[13]": {"experiment": "Luminescence Cell-Based Dose Response HTS to Identify Activators of Luciferase Translation or Activity in H4 […] Cells. [Related pubchem assays: 1829 (Project Summary), 1814 (Primary HTS)]", "format": "functional"}, "[14]": {"experiment": "Luminescence Cell-Based Dose Confirmation HTS to Identify Activators of 5'UTR Stem-Loop Driven Alpha-Synuclein mRNA Translation in H4 Neuroglioblastoma Cells. [Related pubchem assays: 1829 (Project Summary), 1814 (Primary HTS)]", "format": "functional"}, "H4": {"tested_on": "H4", "experiment": "Luminescence Cell-Based Dose Response HTS to Identify Activators of 5'UTR Stem-Loop Driven Prion Protein mRNA Translation in H4 Neuroglioblastoma Cells. [Related pubchem assays: 1829 (Project Summary), 1814 (Primary HTS)]", "format": "functional", "settings": "Homo sapiens"}, "Cytochrome P450 3A4": {"biological_target": "Cytochrome P450 3A4 (Homo sapiens, UniProt P08684)", "sequence (P08684 whole entry)": "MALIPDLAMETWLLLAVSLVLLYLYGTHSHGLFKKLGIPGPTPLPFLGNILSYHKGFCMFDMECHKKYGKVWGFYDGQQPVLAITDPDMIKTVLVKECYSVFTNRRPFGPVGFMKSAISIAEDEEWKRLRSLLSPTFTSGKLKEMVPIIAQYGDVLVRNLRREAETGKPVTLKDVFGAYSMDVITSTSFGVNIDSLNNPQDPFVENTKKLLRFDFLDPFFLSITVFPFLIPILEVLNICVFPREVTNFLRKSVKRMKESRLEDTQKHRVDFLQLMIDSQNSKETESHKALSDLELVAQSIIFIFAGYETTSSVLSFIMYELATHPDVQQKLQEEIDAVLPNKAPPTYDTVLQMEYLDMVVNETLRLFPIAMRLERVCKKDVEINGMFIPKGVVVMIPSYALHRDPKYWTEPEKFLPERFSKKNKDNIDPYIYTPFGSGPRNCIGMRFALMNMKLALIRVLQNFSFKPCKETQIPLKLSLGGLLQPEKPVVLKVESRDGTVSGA"}},
  "note": "The source made the active and inactive calls.",
  "data": [
    {"smiles": "COc1ccc(CN2CCOC2=O)cc1OC", "values": [
      {"measurement": "AC50", "setting": "[1]", "result": "9.25 µM (active)"}
    ]},
    {"smiles": "O=C(CN1CCC(C(=O)c2ccc(Cl)cc2)CC1)Nc1ccc2c(c1)OCCO2", "values": [
      {"measurement": "EC50", "setting": "cells [2]", "result": "> 350 µM (not active)"},
      {"measurement": "EC50", "setting": "cells [3]", "result": "> 350 µM (not active)"}
    ]},
    {"smiles": "NS(=O)(=O)c1ccc(CNC(=O)/C=C/c2c(Cl)cccc2Cl)cc1", "values": [
      {"measurement": "AC50", "setting": "Cytochrome P450 2C19", "result": "25.1 µM (inconclusive)"},
      {"measurement": "AC50", "setting": "Cytochrome P450 2C9", "result": "inconclusive"}
    ]},
    {"smiles": "COc1ccccc1C(=O)Nc1ccccc1SC(=O)c1ccccc1OC", "values": [
      {"measurement": "EC50", "setting": "cells [2]", "result": "> 350 µM (not active)"},
      {"measurement": "EC50", "setting": "cells [3]", "result": "> 350 µM (not active)"}
    ]},
    {"smiles": "C/C=C/c1ccc([C@H]2[C@@H](CNC(=O)CC)N(Cc3ccccn3)[C@H]2CO)cc1", "values": [
      {"measurement": "AC50", "setting": "[1]", "result": "0.454 µM (active)"}
    ]},
    {"smiles": "COc1cc(/C=C/C(=O)Nc2cc(C(F)(F)F)ccc2Cl)cc(OC)c1OC", "values": [
      {"measurement": "AC50", "setting": "Cytochrome P450 2C9", "result": "inconclusive"},
      {"measurement": "AC50", "setting": "Cytochrome P450 2D6", "result": "0.00562 µM (inconclusive)"},
      {"measurement": "AC50", "setting": "Cytochrome P450 1A2", "result": "15.8 µM (inconclusive)"}
    ]},
    {"smiles": "C[C@H](CO)N1C[C@H](C)[C@@H](CN(C)Cc2ccc(Oc3ccccc3)cc2)Oc2ncc(-c3cncnc3)cc2C1=O", "values": [
      {"measurement": "AC50", "setting": "[4]", "result": "26 µM (active)"},
      {"measurement": "AC50", "setting": "[1]", "result": "0.511 µM (active)"}
    ]},
    {"smiles": "Cc1c(NC(=O)c2ccc(-c3ccccc3)cc2)cccc1C(=O)O", "values": [
      {"measurement": "AC50", "setting": "[5]", "result": "17.1 µM (active)"},
      {"measurement": "AC50", "setting": "[6]", "result": "13.5 µM (active)"}
    ]},
    {"smiles": "CCCSCCCNC(=O)c1ccccc1NC(=O)C1=CSCCO1", "values": [
      {"measurement": "EC50", "setting": "cells [2]", "result": "297 µM (active)"},
      {"measurement": "EC50", "setting": "cells [3]", "result": "> 350 µM (not active)"}
    ]},
    {"smiles": "COc1ccc(S(=O)(=O)Nc2cccc(Cl)c2)cc1OC", "values": [
      {"measurement": "AC50", "setting": "Cytochrome P450 2C9", "result": "inconclusive"},
      {"measurement": "AC50", "setting": "Cytochrome P450 1A2", "result": "31.6 µM (inconclusive)"}
    ]},
    {"smiles": "CC(C)(C)NC(=O)CN(Cc1ccc2c(c1)OCO2)C(=O)CNS(=O)(=O)c1ccc(F)cc1", "values": [
      {"measurement": "EC50", "setting": "cells [2]", "result": "> 350 µM (not active)"},
      {"measurement": "EC50", "setting": "cells [3]", "result": "> 350 µM (not active)"}
    ]},
    {"smiles": "O=S(=O)(NCc1nnc2c(C(F)(F)F)cc(Cl)cn12)c1ccccc1", "values": [
      {"measurement": "EC50", "setting": "Streptococcus", "result": "> 150 µM (not active)"},
      {"measurement": "EC50", "setting": "cells [2]", "result": "> 350 µM (not active)"},
      {"measurement": "EC50", "setting": "cells [3]", "result": "> 350 µM (not active)"},
      {"measurement": "EC50", "setting": "[7]", "result": "> 150 µM (not active)"},
      {"measurement": "EC50", "setting": "Streptokinase A", "result": "> 150 µM (not active)"}
    ]},
    {"smiles": "Cc1nn(Cc2c(Cl)cccc2Cl)c(C)c1NC(=O)c1cn(-c2ccccc2)nc1-c1ccccc1", "values": [
      {"measurement": "EC50", "setting": "Streptococcus", "result": "21.6 µM (active)"},
      {"measurement": "EC50", "setting": "[8]", "result": "4.36 µM (active)"},
      {"measurement": "EC50", "setting": "[9]", "result": "4.04 µM (active)"},
      {"measurement": "AC50", "setting": "[10]", "result": "25.8 µM (active)"},
      {"measurement": "AC50", "setting": "[11]", "result": "55 µM (active)"},
      {"measurement": "AC50", "setting": "[12]", "result": "1.01 µM (active)"},
      {"measurement": "AC50", "setting": "INS1", "result": "2.46 µM (active)"},
      {"measurement": "EC50", "setting": "[7]", "result": "8.01 µM (active)"},
      {"measurement": "EC50", "setting": "Streptokinase A", "result": "> 150 µM (not active)"}
    ]},
    {"smiles": "O=C1CCCc2ccccc2N1Cc1ccc(F)cc1", "values": [
      {"measurement": "EC50", "setting": "cells [2]", "result": "> 350 µM (not active)"},
      {"measurement": "EC50", "setting": "cells [3]", "result": "> 350 µM (not active)"}
    ]},
    {"smiles": "CC(C)OC(=O)CC12CN(C)CC(CC(=O)OC(C)C)(CN(C)C1)C2=O", "values": [
      {"measurement": "EC50", "setting": "[13]", "result": "72.4 µM (active)"},
      {"measurement": "AC50", "setting": "Cytochrome P450 2C9", "result": "inconclusive"},
      {"measurement": "EC50", "setting": "[14]", "result": "47.6 µM (active)"},
      {"measurement": "EC50", "setting": "H4", "result": "37 µM (active)"}
    ]},
    {"smiles": "O=c1c2ccccc2nnn1CSc1nnnn1-c1ccccc1", "values": [
      {"measurement": "AC50", "setting": "Cytochrome P450 3A4", "result": "12.6 µM (inconclusive)"},
      {"measurement": "AC50", "setting": "Cytochrome P450 2C9", "result": "inconclusive"},
      {"measurement": "AC50", "setting": "Cytochrome P450 2D6", "result": "17.8 µM (inconclusive)"},
      {"measurement": "AC50", "setting": "Cytochrome P450 1A2", "result": "25.1 µM (inconclusive)"}
    ]},
    {"smiles": "O=C(/C=C/c1cc2c(cc1Br)OCO2)NCc1ccc(Cl)cc1", "values": [
      {"measurement": "AC50", "setting": "Cytochrome P450 2C19", "result": "17.8 µM (inconclusive)"},
      {"measurement": "AC50", "setting": "Cytochrome P450 2C9", "result": "inconclusive"}
    ]}
  ]
}
